Data: US8329717B2, “Pyrimidine derivatives and their use for controlling undesired plant growth” (Bayer Cropscience AG, priority 2008, dated 2012)

Tests used:
[1] = logp (HCOOH), chemicophysical data; conditions: HCOOH
Lolium multiflorum = assay: Pre-emergence herbicidal effect; type: in vivo; conditions: Dosage 320 g/ha, visual scoring after 3 weeks vs untreated controls, 100% = plants have died
From the text: (§1) 1. Pre-Emergence Herbicidal Effect and Crop Plant Compatibility Seeds of monocotyledonous or dicotyledonous weed plants or crop plants are planted in wood-fiber pots in sandy loam and covered with earth. The compounds according to the invention, formulated in the form of wettable powders (WP) or as emulsion concentrates (EC), are then applied as aqueous suspension or emulsion at a water application rate of 600 to 800 l/ha (converted) with the addition of 0.2% of wetting agent to the surface of the covering earth. The dosage of the compounds according to the invention is given in grams per hectare. Following the treatment, the pots are placed in a greenhouse and kept under good growth conditions for the test plants. The visual scoring of the damage on the test plants is carried out after an experiment time of 3 weeks in comparison with untreated controls (herbicidal effect in percent (%): 100% effect=plants have died, 0% effect=as control plants). The following abbreviations are used in the tables below: [table]

Matricaria inodora = assay: Pre-emergence herbicidal effect; type: in vivo; conditions: Dosage 320 g/ha, visual scoring after 3 weeks vs untreated controls, 100% = plants have died
From the text: as §1

Stellaria media = assay: Pre-emergence herbicidal effect; type: in vivo; conditions: Dosage 320 g/ha, visual scoring after 3 weeks vs untreated controls, 100% = plants have died
From the text: as §1

Veronica persica = assay: Pre-emergence herbicidal effect; type: in vivo; conditions: Dosage 320 g/ha, visual scoring after 3 weeks vs untreated controls, 100% = plants have died
From the text: as §1

Amaranthus retroflexus = assay: Pre-emergence herbicidal effect; type: in vivo; conditions: Dosage 320 g/ha, visual scoring after 3 weeks vs untreated controls, 100% = plants have died
From the text: as §1

Echinochloa crus-galli = assay: Pre-emergence herbicidal effect; type: in vivo; conditions: Dosage 320 g/ha, visual scoring after 3 weeks vs untreated controls, 100% = plants have died
From the text: as §1

Viola tricolor = assay: Pre-emergence herbicidal effect; type: in vivo; conditions: Dosage 320 g/ha, visual scoring after 3 weeks vs untreated controls, 100% = plants have died
From the text: as §1

Structure (SMILES) | logp (HCOOH) [1] | also measured
Cc1ccc2c(c1)C(Nc1ncc(I)c(N)n1)C(C)C2 (mixture of isomers) [Example 1.87] | wax-like; logp (HCOOH): 1.37; 1H-NMR (CDCl3, 400 MHZ, δ in ppm): 1.25 (d, 3H, CH3); | –
Cc1nc(NC2CCOc3ccc(C(C)C)cc32)nc(N)c1C#N (racemic) [Example 1.27] | solid, m.p.: 158.8° C.; logp (HCOOH): 2.51; 1H-NMR (CDCl3, 400 MHZ, δ in ppm): 1.15 | –
N#Cc1c(N)nc(NC2CCCc3ccccc32)nc1C(F)(F)F (racemic) [Example 1.29] | solid; m.p.: 205.8° C.; logp (HCOOH): 3.43; 1H-NMR (CDCl3, 400 MHZ, δ in ppm): 1.85 | –
COC(=O)c1cc(N)nc(NC2CCCc3ccccc32)n1 (racemic) [Example 1.212] | wax-like; logp (HCOOH): 2.54; 1H-NMR (CDCl3, 400 MHZ, δ in ppm): 1.80-2.10 (m, | –
N#Cc1cnc(NC2CCc3cc(Cl)ccc32)nc1N (racemic) [Example 1.216] | wax-like; logp (HCOOH): 2.18; 1H-NMR (CDCl3, 400 MHZ, δ in ppm): 1.80 (m, 1H, 1H | –
Cc1nc(NC2CCc3cc(Cl)ccc32)nc(N)c1C#N (racemic) [Example 1.217] | wax-like; logp (HCOOH): 2.21; 1H-NMR (CDCl3, 400 MHZ, δ in ppm): 1.80 (m, 1H, 1H | –
Cc1nc(NC2(C)CCCc3ccccc32)nc(N)c1C#N (racemic) [Example 1.224] | wax-like; logp (HCOOH): 3.37; 1H-NMR (CDCl3, 400 MHZ, δ in ppm): 1.80 (m, 1H, 1H | –
CCc1ccc2c(c1)C(Nc1ncc(C(F)(F)F)c(N)n1)CCO2 (racemic) [Example 1.238] | wax-like; logp (HCOOH): 2.02; 1H-NMR (CDCl3, 400 MHZ, δ in ppm): 1.15 (t, 3H, CH3); | –
COc1ccc2c(c1)C(Nc1ncc(C(F)(F)F)c(N)n1)CCO2 (racemic) [Example 1.239] | wax-like; logp (HCOOH): 1.46 | –
CC1(C)CC(Nc2ncc(C(F)(F)F)c(N)n2)c2cc(F)c(Cl)cc2O1 (racemic) [Example 1.241] | wax-like; logp (HCOOH): 2.83; 1H-NMR (CDCl3, 400 MHZ, δ in ppm): 1.30 (s, 3H, CH3); | –
CC1Cc2ccc(F)cc2C1Nc1ncc(C(F)(F)F)c(N)n1 (racemic) [Example 1.243] | wax-like; logp (HCOOH): 1.93; 1H-NMR (CDCl3, 400 MHZ, δ in ppm): 0.95 (d, 3H, CH3); | –
Cc1cccc2c1CCC2Nc1ncc(C(F)(F)F)c(N)n1 (racemic) [Example 1.254] | wax-like; logp (HCOOH): 1.75; 1H-NMR (CDCl3, 400 MHZ, δ in ppm): 2.10 (s, 3H, | –
Cc1cc(C)c2c(c1)C(Nc1ncc(C#N)c(N)n1)CCC2 (racemic) [Example 1.271] | wax-like; logp (HCOOH): 2.60; 1H-NMR (CDCl3, 400 MHZ, δ in ppm): 1.85 (m, 3H, 3H | –
Cc1ccc2c(c1)[C@H](Nc1nccc(N)n1)[C@@H](C)C2 [Example 1.38] | wax-like; logp (HCOOH): 1.25; 1H-NMR (CDCl3, 400 MHZ, δ in ppm): 1.25 (m, 3H, CH3); | –
C[Si](C)(C)C#Cc1cnc(N[C@@H]2CCCc3ccccc32)nc1N [Example 1.39] | wax-like; logp (HCOOH): 1.86; 1H-NMR (CDCl3, 400 MHZ, δ in ppm): 0.25 (s, 9H, CH3); | –
Cc1ccc2c(c1)[C@H](Nc1nc(C)cc(N)n1)[C@@H](C)C2 [Example 1.41] | wax-like; logp (HCOOH): 1.12; 1H-NMR (DMSO, 400 MHZ, δ in ppm): 1.15 (d, 3H, CH3); | –
Cc1ccc2c(c1)[C@H](Nc1ncc(C)c(N)n1)[C@@H](C)C2 [Example 1.51] | – | Pre-emergence herbicidal effect LOLMU (Lolium multiflorum): 100%; Pre-emergence herbicidal effect MATIN (Matricaria inodora): 100%; Pre-emergence herbicidal effect STEME (Stellaria media): 100%; Pre-emergence herbicidal effect VERPE (Veronica persica): 100%
Cc1ccc2c(c1)[C@H](Nc1nc(N)c(C#N)c(C(C)C)n1)[C@@H](C)C2 [Example 1.64] | wax-like; logp (HCOOH): 3.90; 1H-NMR (CDCl3, 400 MHZ, δ in ppm): 1.25 (m, 9H, | –
CC(C)c1nc(N[C@@H]2CCCc3ccccc32)nc(N)c1C#N [Example 1.66] | wax-like; logp (HCOOH): 3.34; 1H-NMR (CDCl3, 400 MHZ, δ in ppm): 1.25 (m, 6H, | –
Nc1cc(Cl)nc(N[C@@H]2CCCc3ccccc32)n1 [Example 1.76] | – | Pre-emergence herbicidal effect AMARE (Amaranthus retroflexus): 90%; Pre-emergence herbicidal effect MATIN (Matricaria inodora): 100%; Pre-emergence herbicidal effect STEME (Stellaria media): 100%; Pre-emergence herbicidal effect VERPE (Veronica persica): 100%
Cc1ccc2c(c1)[C@H](Nc1nc(N)c(C#N)c(-c3ccccc3C)n1)[C@@H](C)C2 [Example 1.77] | solid; logp (HCOOH): 3.83; 1H-NMR (CDCl3, 400 MHZ, δ in ppm): 1.25 (m, 3H, CH3); | –
Cc1ccccc1-c1nc(N[C@@H]2CCCc3ccccc32)nc(N)c1C#N [Example 1.78] | solid; logp (HCOOH): 3.41; 1H-NMR (CDCl3, 400 MHZ, δ in ppm): 1.85-2.05 (br, 4H, | –

Structure (SMILES) | logp (HCOOH) [1] | also measured
Cc1ccc2c(c1)[C@H](Nc1nc(N)cc(-c3ccccc3)n1)[C@@H](C)C2 [Example 1.83] | wax-like; logp (HCOOH): 1.71; 1H-NMR (CDCl3, 400 MHZ, δ in ppm): 1.25 (m, 3H, CH3); | –
CC1(c2nc(N[C@@H]3CCCc4ccccc43)nc(N)c2C#N)CC1 [Example 1.84] | wax-like; logp (HCOOH): 2.63; 1H-NMR (CDCl3, 400 MHZ, δ in ppm): 0.75 (m, 2H, CH2); | –
Cc1ccc(C2(c3nc(N[C@@H]4CCCc5ccccc54)nc(N)c3C#N)CC2)cc1 [Example 1.85] | wax-like; logp (HCOOH): 4.02; 1H-NMR (CDCl3, 400 MHZ, δ in ppm): 1.70-2.10 (br, | –
N#Cc1c(N)nc(N[C@@H]2CCCc3ccccc32)nc1C1(c2ccc(Cl)cc2Cl)CC1 [Example 1.86] | wax-like; logp (HCOOH): 5.15; 1H-NMR (CDCl3, 400 MHZ, δ in ppm): 1.25 (br, 2H, | –
Cc1ccc2c(c1)[C@H](Nc1nc(N)cc(N(C)C)n1)[C@@H](C)C2 [Example 1.91] | wax-like; logp (HCOOH): 1.66; 1H-NMR (CDCl3, 400 MHZ, δ in ppm): 1.25 (d, 3H, CH3); | –
Cc1ccc2c(c1)[C@H](Nc1nc(N)c(C#N)c(C3(C)CC3)n1)[C@@H](C)C2 [Example 1.93] | wax-like; logp (HCOOH): 3.31; 1H-NMR (CDCl3, 400 MHZ, δ in ppm): 0.75 (m, 2H, CH2); | –
Cc1ccc2c(c1)[C@H](Nc1ncc(C(F)(F)F)c(N)n1)[C@@H](C)C2 [Example 1.107] | wax-like, logp (HCOOH): 2.11; 1H-NMR (CDCl3, 400 MHZ, δ in ppm): 1.25 (d, 3H, CH3); | –
C#Cc1cnc(N[C@@H]2CCCc3ccccc32)nc1N [Example 1.116] | wax-like; logp (HCOOH): 1.09; 1H-NMR (CDCl3, 400 MHZ, δ in ppm): 1.80 (m, 3H, 3H | –
COC(=O)c1cc(N)nc(N[C@H]2c3cc(C)ccc3C[C@@H]2C)n1 [Example 1.118] | wax-like; logp (HCOOH): 2.96; 1H-NMR (CDCl3, 400 MHZ, δ in ppm): 1.30 (d, 3H, CH3); | –
Cc1nc(N[C@@H]2CCc3ccccc32)nc(N)c1[N+](=O)[O-] [Example 1.123] | – | Pre-emergence herbicidal effect AMARE (Amaranthus retroflexus): 100%; Pre-emergence herbicidal effect ECHCG (Echinochloa crus-galli): 80%; Pre-emergence herbicidal effect MATIN (Matricaria inodora): 100%; Pre-emergence herbicidal effect STEME (Stellaria media): 100%; Pre-emergence herbicidal effect VERPE (Veronica persica): 100%; Pre-emergence herbicidal effect VIOTR (Viola tricolor): 100%
CC(=O)c1cnc(N[C@H]2c3cc(C)ccc3C[C@@H]2C)nc1N [Example 1.184] | wax-like; logp (HCOOH): 1.58; 1H-NMR (CDCl3, 400 MHZ, δ in ppm): 1.30 (d, 3H, CH3); | –
Cc1ccc2c(c1)[C@H](Nc1nc(N)cc(C(F)(F)F)n1)[C@@H](C)C2 [Example 1.214] | wax-like; logp (HCOOH): 1.59; 1H-NMR (CDCl3, 400 MHZ, δ in ppm): 1.30 (d, 3H, CH3); | –
COc1cccc(C#Cc2cnc(N[C@H]3c4cc(C)ccc4C[C@@H]3C)nc2N)c1 [Example 1.221] | wax-like; logp (HCOOH): 1.98; 1H-NMR (CDCl3, 400 MHZ, δ in ppm): 1.25 (d, 3H, CH3); | –
Cc1ccc2c(c1)[C@H](Nc1ncc(C#CCO)c(N)n1)[C@@H](C)C2 [Example 1.222] | wax-like; logp (HCOOH): 1.04; 1H-NMR (CDCl3, 400 MHZ, δ in ppm): 1.25 (d, 3H, CH3); | –
Nc1nc(N[C@@H]2CCc3ccccc32)ncc1C(F)(F)F [Example 1.237] | wax-like; logp (HCOOH): 1.50; 1H-NMR (CDCl3, 400 MHZ, δ in ppm): 1.80 (m, 1H, 1H | –
Cc1ccc2c(c1)[C@H](Nc1ncc(C#Cc3cccc(C(F)(F)F)c3)c(N)n1)[C@@H](C)C2 [Example 1.247] | wax-like; logp (HCOOH): 2.60; 1H-NMR (CDCl3, 400 MHZ, δ in ppm): 1.25 (d, 3H, CH3); | –
Cc1ccc2c(c1)[C@H](Nc1ncc(C#Cc3ccc(F)c(Cl)c3)c(N)n1)[C@@H](C)C2 [Example 1.248] | wax-like; logp (HCOOH): 2.71; 1H-NMR (CDCl3, 400 MHZ, δ in ppm): 1.25 (d, 3H, CH3); | –
Cc1ccc2c(c1)[C@H](Nc1ncc(C#CCC(C)C)c(N)n1)[C@@H](C)C2 [Example 1.249] | wax-like; logp (HCOOH): 1.73; 1H-NMR (CDCl3, 400 MHZ, δ in ppm): 1.00 (d, 6H, | –
CCC(O)C#Cc1cnc(N[C@H]2c3cc(C)ccc3C[C@@H]2C)nc1N (stereo partly drawn) [Example 1.251] | wax-like; logp (HCOOH): 1.48; 1H-NMR (CDCl3, 400 MHZ, δ in ppm): 1.00 (t, 3H, CH3); | –
CC(=O)OCC#Cc1cnc(N[C@H]2c3cc(C)ccc3C[C@@H]2C)nc1N [Example 1.252] | wax-like; logp (HCOOH): 1.59; 1H-NMR (CDCl3, 400 MHZ, δ in ppm): 1.25 (d, 3H, CH3); | –
Cc1nc(N[C@@H]2CCCc3ccccc32)nc(N)c1C(=O)OC1CCCCC1 [Example 1.255] | wax-like; logp (HCOOH): 2.03; 1H-NMR (CDCl3, 400 MHZ, δ in ppm): 2.10-2.65 (m, | –
